From patent publication US20210189503A1, “BIOMARKERS FOR DETERMINING RESPONSIVENESS OF A CANCER TO PI3K INHIBITORS” (MEMORIAL SLOAN-KETTERING CANCER CENTER, priority 2018, published 2021)

Assays:
[1] = system: PIK3CA mutant MCF10A cells; assay: Cell viability / cell inhibition by PI3K inhibitors (CellTiter-Glo, dose-response survival); settings: for sensitivity of cell growth to PI3Kα inhibition: E545K and H1047R major hotspot mutants compared to minor mutants and WT
[2] = system: recombinant single and cis mutant PI3Kα complexes; assay: IC50 determination of recombinant PI3K (Transcreener ADP2 fluorescence intensity assay); settings: among the recombinant single and cis mutant PI3Kα complexes
[3] = system: PI3K pathway signaling in PIK3CA mutant MCF10A cells; assay: Western blotting of PI3K effectors, MCF10A cells; settings: BYL719 1 μM, 24 hours, serum starvation, vs single mutant cells
[4] = system: PI3K pathway signaling in PIK3CA mutant NIH-3T3 cells; assay: Western blotting of PI3K effectors, NIH-3T3 cells; type: cell-based, mouse; settings: BYL719 1 μM, 24 hours, serum starvation, vs single mutant cells
[5] = system: ER+ metastatic breast cancer; assay: Phase 1 clinical trial NCT01870505 of alpelisib (BYL719) plus aromatase inhibitor, PFS analysis; type: in vivo, human; settings: with an aromatase inhibitor; for progression free survival: tumor NGS (FIG. 18C); for PFS (duration of response to PI3K inhibition): tumor and ctDNA NGS (FIG. 17E)
Experimental: Progression-free survival analysis was performed on patients enrolled in NCT01870505, a phase I clinical trial of BYL719 (alpelisib) plus letrozole or exemestane for patients (n=51) with hormone-receptor positive locally-advanced unresectable or metastatic breast cancer. 44/51 patients were analyzed for NGS of their tumors (MSK-IMPACT) and/or NGS of their ctDNA (Guardant) and were included in the analysis. Progression free survival was calculated and was compared between dual and single mutant patients. Clinical benefit rates (complete response, partial response or stable disease) were calculated and were compared between dual and single mutant patients using Fisher's exact test.
(§1) Retrospective PFS analysis was performed on tumors from a large breast cancer dataset (n=1918) sequenced by MSK-IMPACT ((Razavi et al., Cancer Cell 34, 427-438 e426 (2018)). Tumors were included in analysis if both pre- and post-endocrine therapy (aromatase inhibitor or fulvestrant) biopsies confirmed WT, single PIK3CA mutation, or multiple PIK3CA mutations. Kaplan-Meier curves were generated for PFS after firstline aromatase inhibitor or firstline fulvestrant therapy. PFS analysis was performed on patients enrolled in NCT01870505, a phase 1 clinical trial of alpelisib plus letrozole or exemestane for patients with hormone-receptor positive locally-advanced unresectable or metastatic breast cancer. 46/51 patients had biopsy samples that confirmed PIK3CA mutant or WT alleles by tumor NGS, and these 46 patients were included in the final analysis.

[6] = system: PIK3CA mutant and WT breast cancers; assay: Retrospective PFS analysis on endocrine therapy (aromatase inhibitor or fulvestrant); type: in vivo, human
Experimental: as §1

[7] = system: metastatic ER-positive PIK3CA mutant breast cancer; assay: […] phase III clinical trial of taselisib with fulvestrant, ctDNA PIK3CA analysis; type: in vivo, human; settings: for overall response rate: taselisib arm (with fulvestrant)
Source text: The present disclosure investigated the effects of multiple PIK3CA mutations on clinical response to PI3Kα inhibitors in metastatic breast cancer. The present disclosure analyzed response data from […], a phase III registrational clinical trial that tested the efficacy of the PI3Kα inhibitor taselisib (GDC-0032), with fulvestrant (an estrogen receptor [ER] degrader) in metastatic ER-positive PIK3CA mutant breast cancer. This is the largest randomized clinical study testing a PI3Kα inhibitor (631 patients).
Many patients with metastatic ER-positive breast cancer enrolled in this trial had bone metastases, which must be decalcified to be analyzed by NGS, which render DNA sequencing particularly challenging (Singh et al., Ann Diagn Pathol 17, 322-326 (2013)). Thus, the present disclosure used circulating tumor DNA (ctDNA), which has been utilized in many breast cancer clinical trials (Baselga et al., Lancet Oncol 18, 904-916 (2017); Andre et al., N Engl J Med 380, 1929-1940 (2019); Baselga et al., N Engl J Med 366, 520-529 (2012); Turner et al., N Engl J Med 373, 209-219 (2015)), to detect the presence of multiple mutations. Of the 631 patients on the trial, 598 had plasma samples available for analysis, of which 508 were adequate for testing (FIG. 19A). Samples were tested using the Foundation One liquid assay, which sequences the entire PIK3CA gene. Of the 339 patients with detected PIK3CA mutations, 66 (19%) had 2 or more PIK3CA mutations.
For analysis of the […] clinical trial (Baselga, Journal of Clinical Oncology, 2018, 36, no. 18_suppl.) patient ctDNA samples (n=631), 508 patient samples met quality control parameters and were analyzed by Foundation Medicine One Liquid assay (Clark et al., J Mol Diagn 20, 686-702 (2018)) which sequences […] of PIK3CA and can detect mutations at amino acid positions 545, 1047, 453, 726, and 1043 (FIG. 24). 339 samples were identified with PIK3CA mutations, of which 66 contained two or more PIK3CA mutations. Patients with measurable disease from the ctDNA PIK3CA mutant cohort, on the taselisib arm, were analyzed based on the percentage change in the sum of longest diameter (SLD) of target lesion from baseline, and were tabulated by waterfall plot. Patients with both measurable and nonmeasurable disease from the ctDNA PIK3CA mutant cohort were assessed on the placebo and taselisib arms for overall response rate (defined as tumor shrinkage >30%). 95% CI for rates were constructed using the Blyth-Still-Casella method. The CI for the difference in ORRs between the two treatment arms were determined using the normal approximation to the binomial distribution. Response rates in the treatment arms were compared (p-value) using the stratified Cochran-Mantel-Haenszel test.

[8] = target: p85α regulatory subunit of PI3Kα (PIK3R1), full length human, hexahistidine-tagged at the N-terminus (UniProt P27986)
Chain of p85α regulatory subunit of PI3Kα (PIK3R1), full length human, hexahistidine-tagged at the N-terminus (P27986 whole entry, looked up, tested part not stated): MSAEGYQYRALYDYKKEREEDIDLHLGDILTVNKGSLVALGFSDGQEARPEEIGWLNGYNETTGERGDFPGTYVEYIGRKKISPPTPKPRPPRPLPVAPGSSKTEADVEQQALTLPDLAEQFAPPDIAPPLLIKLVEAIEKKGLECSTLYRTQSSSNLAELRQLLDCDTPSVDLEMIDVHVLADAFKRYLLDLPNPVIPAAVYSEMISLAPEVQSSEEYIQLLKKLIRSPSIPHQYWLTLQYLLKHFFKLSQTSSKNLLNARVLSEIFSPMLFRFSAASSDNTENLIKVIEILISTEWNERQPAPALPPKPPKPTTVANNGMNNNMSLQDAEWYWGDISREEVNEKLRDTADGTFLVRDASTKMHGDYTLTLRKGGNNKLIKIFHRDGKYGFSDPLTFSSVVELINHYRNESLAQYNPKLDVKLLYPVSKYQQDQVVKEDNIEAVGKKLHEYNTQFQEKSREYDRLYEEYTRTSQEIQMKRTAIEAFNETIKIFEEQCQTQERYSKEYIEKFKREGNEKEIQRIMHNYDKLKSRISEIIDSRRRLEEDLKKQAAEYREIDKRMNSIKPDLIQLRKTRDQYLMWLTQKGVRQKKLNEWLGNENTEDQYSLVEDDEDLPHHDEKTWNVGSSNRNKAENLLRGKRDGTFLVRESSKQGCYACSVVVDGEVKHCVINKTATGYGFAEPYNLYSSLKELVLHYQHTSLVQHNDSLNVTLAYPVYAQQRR

C[C@H](Nc1ccc2c(c1)OCCn1cc(N3C(=O)OC[C@H]3C(F)F)nc1-2)C(N)=O [GDC-0077]
sensitivity of cell growth to PI3Kα inhibition ([1]; MCF10A): more sensitive
IC50 ([1]; read-out: IC50 [GDC-0077] of MCF10A E545K cells, MCF10A E545K cells, per FIG. 6G): 62.5 nM
IC50 values, recombinant PI3Kα complexes [2]: similar

Cc1nc(NC(=O)N2CCC[C@H]2C(N)=O)sc1-c1ccnc(C(C)(C)C(F)(F)F)c1 [alpelisib]
compound mutant PI3K pathway signaling on PI3K inhibition [3]: decreases to similar levels
cell viability ([1]; Example 1, compound PIK3CA mutants vs single mutants): more significant decrease in cell viability
sensitivity of mutations in trans ([1]; MCF10A E726K/H1047R in trans compared to cis mutants): less sensitive
sensitivity of mutations in trans ([1]; MCF10A E726K/H1047R in trans compared to the single major mutant): no more sensitive
sensitivity of cell growth to PI3Kα inhibition ([1]; MCF10A): more sensitive
fold of inhibition of cell growth ([1]; MCF10A, E545K- and H1047R-containing compound mutants vs single mutants): increased fold of inhibition
compound mutant PI3K pathway signaling on PI3K inhibition [4]: decreases to similar levels
progression free survival ([5]; WT PIK3CA tumors): 7.5 weeks
progression free survival ([5]; double PIK3CA mutant tumors): 48 weeks
PFS (duration of response to PI3K inhibition) ([5]; dual PIK3CA mutant patients): 48 weeks
patients with clinical benefit rate >30 weeks ([5]; dual mutant tumors, p=0.044 vs single): 67%
PFS (duration of response to PI3K inhibition) ([5]; single PIK3CA mutant patients): 17 weeks
progression free survival ([5]; single PIK3CA mutant tumors): 20 weeks
patients with clinical benefit rate >30 weeks ([5]; single mutant tumors): 23%
median PFS, double mutant vs single mutant or WT tumors ([5]; not statistically significant): longer median PFS
IC50 values, recombinant PI3Kα complexes [2]: similar

CO[C@H]1C[C@@H]2CC[C@@H](C)[C@@](O)(O2)C(=O)C(=O)N2CCCC[C@H]2C(=O)O[C@H]([C@H](C)C[C@@H]2CC[C@@H](OCCO)[C@H](OC)C2)CC(=O)[C@H](C)/C=C(\C)[C@@H](O)[C@@H](OC)C(=O)[C@H](C)C[C@H](C)/C=C/C=C/C=C/1C [everolimus]
sensitivity to downstream PI3K pathway inhibitor ([1]; MCF10A, cis mutants compared to single mutants, serum starvation 4 days): more sensitive

C[C@]12CC[C@@H]3c4ccc(O)cc4C[C@@H](CCCCCCCCC[S+]([O-])CCCC(F)(F)C(F)(F)F)[C@H]3[C@@H]1CC[C@@H]2O (stereo partly drawn) [fulvestrant]
PFS of dual mutant patients vs patients with WT tumors ([6]; fulvestrant): worse PFS
PFS of patients with dual PIK3CA-mutant tumors vs single mutant or WT tumors ([6]; fulvestrant alone): do not have improved

Cc1nc(-c2cn3c(n2)-c2ccc(-c4cnn(C(C)(C)C(N)=O)c4)cc2OCC3)n(C(C)C)n1 [taselisib]
overall response rate ([7]; ctDNA PIK3CA mutant total population): 20.3%
overall response rate ([7]; multiple ctDNA PIK3CA mutant subpopulation): 30.2%
overall response rate ([7]; single ctDNA PIK3CA mutant subpopulation): 18.1%
tumor shrinkage, multiple vs single mutant tumors ([7]; taselisib arm, waterfall plot (FIG. 19B)): tumor shrinkage more

p110α E545K, untagged, full length human
thermal shift assay (soluble p110α by Western blot across a temperature gradient) [8]: Among single mutants, E545K is the most thermally unstable
